Where a SMILES comes first, the peptide text is derived from it. [ ]: non-standard residue; d: D form.
Assays:
MRSP [1] = assay: Time-kill assay, MRSP; assay type: cell-based, Staphylococcus pseudintermedius
Description: (§1) Time kill assay was carried out as previously described. […] Plates were incubated at 37 °C on an orbital shaker at 120 rpm. Viability assessments were performed at 0, 2, 4, 6 and 24 h by plating 0.01 mL undiluted and 10-fold serially diluted samples onto Mueller–Hinton plates in triplicate. After overnight incubation at 37 °C, bacterial colonies were counted and compared with counts from control cultures.

[2] = test system: methicillin-susceptible S. pseudintermedius (MSSP); assay: Time-kill assay, MSSP; assay type: cell-based, Staphylococcus pseudintermedius
Description: as §1

human keratinocytes = conditions: at MICs; cited from earlier work
Source text: Azole drugs represent the first choice to treat Malassezia-related infections. It is well known that routine antifungal administration may induce acquired resistance. Peptide 8 was further investigated to verify if prolonged treatment might induce resistance in the yeast. […] Thus, a prolonged application of peptide 8 can be resolutive for yeast infection, without causing drug-resistance. By considering the good results obtained until here, we were prompted to inves ...

mecA gene expression = mecA gene expression by RT-PCR; assay type: cell-based, Staphylococcus pseudintermedius
Description: The reaction was carried out in a DNA thermal cycler (MyCycler, Bio-Rad, Hercules, CA, USA). The PCR products were analysed by electrophoresis on 1.8% agarose gel in TBE and analysed on a Gel Doc EZ System (Bio-Rad, Hercules, CA, USA). RNA extraction was performed by using GenUp Total RNA kit (BiotechRabbit, Berlin, Germany) according to the manufacturer’s instructions. Five hundred nanograms of total cellular RNA were reverse-transcribed (RevertUP II Reverse Transcriptase, BiotechRabbit, Berlin, Germany) into cDNA using random hexamer primers (Random hexamer, Roche Diagnostics, Mannheim, Germany) at 48 °C for 60 min according to the manufacturer’s instructions. RT-PCR was carried out using 2 μL of cDNA, as reported above. Quantification data were normalized to the reference gene for 16S rRNA gene and analyzed by Image Lab software 5.2.1 (Bio-Rad, Hercules, CA, USA).

MSSP mature biofilm = assay: Mature biofilm metabolic activity, XTT assay, MSSP; assay type: cell-based, Staphylococcus pseudintermedius; conditions: 24 h
Description: (§2) The metabolic activity of MSSP and MRSP mature biofilms was quantified by the XTT [2,3-bis(2-methyloxy-4-nitro-5-sulfophenyl)-2H-tetrazolium-5-carboxanilide] (Roche Diagnostics, Germany) reduction assay. The assay was conducted as previously described with some modifications. XTT (150 µL) was added to biofilms in each well and the plates were incubated for 40 min at 37 °C in the dark. The reduction of the tetrazolium salt by cellular dehydrogenase into orange formazan dye was photometrically measured at 490 nm. The medium was set as negative control. Viability values for each well were compared to controls.

MRSP mature biofilm [3] = assay: Mature biofilm biomass, crystal violet assay, MRSP; assay type: cell-based, Staphylococcus pseudintermedius; conditions: MRSP one-day-old biofilm, up to 25 μM, 24 h
Description: Biofilms were allowed to form in each well of a 96-well microtiter plate, as described by Stepanovic. After 24 h, planktonic cells were aspirated, and the plates were washed with 200 μL of PBS. Cells biofilms were exposed to 200 μL of peptide 8 at the final concentration ranging from 6.25 to 25 μM and the plate was further incubated for 24 h at 37 °C. Positive controls were non-treated cells incubated with 200 μL of medium broth. At the end of the experiment crystal violet-staining was performed to assess biofilm mass.

circulating blood cells = conditions: cited from earlier work
MRSP mature biofilm [4] = assay: Confocal laser scanning microscopy of mature biofilm (LIVE/DEAD); assay type: cell-based, Staphylococcus pseudintermedius; conditions: MRSP 1-day-old biofilm, 24 h; 12.5 μM in method, 32 μg/mL in Figure 4 legend
Description: CLSM was used to confirm the effect of peptide 8 on mature biofilm respect the controls. MSRP were grown in chambered cover glass (μ Slide 4 well; ibidi GmbH, Germany) in a static condition for 24 h. Peptide 8 was added on a 1-day-old biofilm at 12.5 μM. Bacterial suspensions incubated with medium alone were used as a positive control. After 24 h, biofilms were rinsed with PBS and stained by using a LIVE/DEAD® BacLight Bacteria Viability stains (Life Technologies, Italy). After the staining, the images were observed using a LSM 700 inverted confocal laser-scanning microscope (Zeiss, Italy). The areas were scanned using a 10X objective lens with the signal recorded in the green channel for Syto9 (excitation 488 nm, emission 500–525 nm) and in red channel for PI (excitation 500–550 nm, emission 610–650 nm).

MRSP mature biofilm [5] = assay: Mature biofilm metabolic activity, XTT assay, MRSP; assay type: cell-based, Staphylococcus pseudintermedius; conditions: 24 h
Description: as §2

MRSP [6] = assay: Checkerboard synergy of peptide 8 and oxacillin; assay type: cell-based, Staphylococcus pseudintermedius; conditions: MRSP
Description: The interaction between peptide 8 and oxacillin against MRSP was evaluated by the checkerboard method. Briefly, twofold serial dilutions of oxacillin distributed in horizontal rows of 96-well microtiter plate were cross-diluted vertically by twofold serial dilutions of peptide 8 to at least double the MIC. The peptide 8 tested concentration ranging from 0.19 to 12.5 μM and oxacillin from 1.25 to 25 μM (0.5 to 10 μg/mL). Microtiter plates were inoculated with bacteria at an approximate concentration of 10^5 CFU/mL and incubated at 37 °C for 24 h. […] To evaluate the effect of the combination treatment, the fractional inhibitory concentration (FIC) index for each combination was calculated as follows: FIC index = FIC of peptide 8 + FIC of oxacillin, where FIC of peptide 8 (or oxacillin) was defined as the ratio of MIC of peptide 8 (or oxacillin) in combination and MIC of peptide 8 (or oxacillin) alone. The FIC index values were interpreted as follows: ≤0.5, synergistic; >0.5 to ≤1.0, additive; >1.0 to ≤2.0, indifferent; and >2.0, antagonistic effects.

In the case of `CC[C@H](C)[C@H](NC(=O)[C@H](CCCNC(=N)N)NC(=O)[C@@H](CCCCN)NC(=O)[C@@H](CC(C)C)NC(=O)[C@H](Cc1ccccc1)NC(=O)[C@H](CCCCN)NC(=O)[C@H](CO)NC(=O)[C@H](Cc1ccccc1)NC(=O)[C@H](Cc1c[nH]c2ccccc12)NC(=O)[C@@H]1CCCN1C(=O)[C@@H](NC(=O)[C@@H](N)Cc1ccccc1)C(C)C)C(=O)N[C@@H](CC(C)C)C(N)=O` [Peptide 8] (H-FVPWFSKF[dL][dK]RIL-NH2; N-terminus assumed), the “Log10CFU/mL 0 h” value (MRSP [1]; peptide at MIC value (6.25 μM), 37 °C, 0 h, three independent experiments in triplicate) was 5.30 ± 0.18 Log10CFU/mL, the “Log10CFU/mL 1 h” value (MRSP [1]; peptide at MIC value (6.25 μM), 1 h) was 2.47 ± 0.18 Log10CFU/mL and the “Log10CFU/mL 2 h” value (MRSP [1]; peptide at MIC value (6.25 μM), 2 h) was 2.38 ± 0.19 Log10CFU/mL. For the same molecule, the “Log10CFU/mL 4 h” value (MRSP [1]; peptide at MIC value (6.25 μM), 4 h) was 1.30 ± 0.21 Log10CFU/mL, the “Log10CFU/mL 6 h” value (MRSP [1]; peptide at MIC value (6.25 μM), 6 h) was 0.77 ± 0.12 Log10CFU/mL and the “Log10CFU/mL 24 h” value (MRSP [1]; peptide at MIC value (6.25 μM), 24 h) was 4.86 ± 0.28 Log10CFU/mL. For the same molecule, the “Bactericidal or bacteriostatic activity” value (MRSP [1]; time-kill at MIC value) was “bacteriostatic”, the “Log10CFU/mL 0 h” value ([2]; peptide at MIC value, 37 °C, 0 h, three independent experiments in triplicate) was 5.45 ± 0.25 Log10CFU/mL and the “Log10CFU/mL 1 h” value ([2]; peptide at MIC value, 1 h) was 0.60 ± 0.12 Log10CFU/mL. The “Log10CFU/mL 2 h” value ([2]; peptide at MIC value, 2 h) was 0.58 ± 0.32 Log10CFU/mL, the “Log10CFU/mL 4 h” value ([2]; peptide at MIC value, 4 h) was 0.89 ± 0.15 Log10CFU/mL and the “Log10CFU/mL 6 h” value ([2]; peptide at MIC value, 6 h) was 0.46 ± 0.15 Log10CFU/mL. For the same molecule, the “Log10CFU/mL 24 h” value ([2]; peptide at MIC value, 24 h) was 4.97 ± 0.30 Log10CFU/mL, the “Bactericidal or bacteriostatic activity” value ([2]; time-kill at MIC value) was “bacteriostatic” and the Cytotoxicity (human keratinocytes) was “low cytotoxicity”. The “Regulation of mecA gene expression” value (mecA gene expression) was “did not regulate mecA gene expression”, the “Reduction of biofilm viability” value (MSSP mature biofilm; 12.5 μM) was 38% and the “Effect on biofilm viability at 25 μM” value (MSSP mature biofilm; 25 μM) was “reduced effect”. The “Effect on mature biofilm biomass” value (MRSP mature biofilm [3]) was “did not affect the biomass”, the Hemolytic activity (circulating blood cells) was “did not show hemolytic activity” and the “Effect on cells within mature biofilm (LIVE/DEAD staining)” value (MRSP mature biofilm [4]) was “killed or damaged”. The “Reduction of biofilm viability” value (MRSP mature biofilm [5]; 6.25 μM) was 38%, the “Reduction of biofilm viability” value (MRSP mature biofilm [5]; 12.5 μM) was 52% and the “Effect on biofilm viability at 25 μM” value (MRSP mature biofilm [5]; 25 μM) was “reduced effect”. The FICindex (MRSP [6]; peptide 8 + oxacillin, checkerboard, 37 °C 24 h, ≤0.5 synergistic) was 0.37 and the “Concentration of peptide 8 in the most synergistic combination” value (MRSP [6]; with 3.1 μM oxacillin, 1/4 MIC) was 1.56 µM.
